Source: the NIST ThermoML archive (doi:10.1016/j.fluid.2013.06.041)
Numbers after ± are expanded uncertainties.

How the values were obtained:
[1] = xn = mol fraction of the nth substance listed; settings: 101 kPa, Liquid, Small sample (50 mg) DSC
[2] = molar heat capacity at constant pressure; settings: 101.33 kPa, Liquid, Small sample (50 mg) DSC
[3] = 101.33 kPa, Liquid, Vibrating tube method

OCCO [1,2-ethanediol] + O
excess molar heat capacity [J/K/mol], [1]
Settings	283.15 K	293.15 K	298.15 K	303.15 K	313.15 K
x1 = 0.00991	0.43 ± 0.43	0.3 ± 0.43	0.26 ± 0.43	0.26 ± 0.43	0.37 ± 0.43
x1 = 0.02619	0.87 ± 0.43	0.79 ± 0.43	0.76 ± 0.43	0.75 ± 0.43	0.74 ± 0.43
x1 = 0.04637	1.03 ± 0.43	1.25 ± 0.43	1.33 ± 0.43	1.39 ± 0.43	1.5 ± 0.43
x1 = 0.07516	1.32 ± 0.43	1.72 ± 0.43	1.85 ± 0.43	1.96 ± 0.43	2.17 ± 0.44
x1 = 0.09514	–	–	1.99 ± 0.43	2.2 ± 0.44	2.5 ± 0.44
x1 = 0.1016	1.26 ± 0.43	–	–	–	–
x1 = 0.1245	1.16 ± 0.43	1.91 ± 0.43	2.17 ± 0.44	2.38 ± 0.44	2.76 ± 0.44
x1 = 0.1491	0.94 ± 0.43	1.76 ± 0.43	2.08 ± 0.43	2.35 ± 0.44	2.82 ± 0.44
x1 = 0.1731	0.76 ± 0.43	1.68 ± 0.43	2.01 ± 0.43	2.29 ± 0.44	–
x1 = 0.2203	–	–	–	–	2.62 ± 0.44
x1 = 0.2903	–	0.61 ± 0.43	1.14 ± 0.43	1.6 ± 0.43	2.42 ± 0.44
x1 = 0.4076	–	0.05 ± 0.42	0.54 ± 0.43	0.98 ± 0.43	1.82 ± 0.43
x1 = 0.4641	–	–	0.35 ± 0.43	0.78 ± 0.43	1.58 ± 0.43
x1 = 0.6066	–	–	0.02	0.035	0.96 ± 0.43
x1 = 0.6959	–	–	–	0.15 ± 0.43	0.63 ± 0.43
x1 = 0.804	–	–	–	–	0.18 ± 0.43

OCCCO [propan-1,3-diol]
Settings	mass density, 283.15 K [kg/m3]	mass density, 293.15 K [kg/m3]	mass density, 298.15 K [kg/m3]	mass density, 303.15 K [kg/m3]	mass density, 313.15 K [kg/m3]	molar heat capacity at constant pressure, 283.15 K [J/K/mol]	molar heat capacity at constant pressure, 293.15 K [J/K/mol]	molar heat capacity at constant pressure, 298.15 K [J/K/mol]	molar heat capacity at constant pressure, 303.15 K [J/K/mol]	molar heat capacity at constant pressure, 313.15 K [J/K/mol]
[2]	–	–	–	–	–	169.44 ± 7.2	174.37 ± 7.4	176.91 ± 7.5	179.52 ± 7.6	185.09 ± 7.9
[3]	1059.14 ± 0.96	1052.85 ± 0.95	1049.68 ± 0.94	1046.51 ± 0.93	1040.12 ± 0.92	–	–	–	–	–

CC(O)CO (configuration not stated) [1,2-propanediol]
Settings	mass density, 283.15 K [kg/m3]	mass density, 293.15 K [kg/m3]	mass density, 298.15 K [kg/m3]	mass density, 303.15 K [kg/m3]	mass density, 313.15 K [kg/m3]	molar heat capacity at constant pressure, 283.15 K [J/K/mol]	molar heat capacity at constant pressure, 293.15 K [J/K/mol]	molar heat capacity at constant pressure, 298.15 K [J/K/mol]	molar heat capacity at constant pressure, 303.15 K [J/K/mol]	molar heat capacity at constant pressure, 313.15 K [J/K/mol]
[2]	–	–	–	–	–	183.26 ± 7.8	188.62 ± 8	191.29 ± 8.1	193.95 ± 8.2	199.25 ± 8.5
[3]	1043.89 ± 0.22	1036.58 ± 0.22	1032.86 ± 0.22	1029.1 ± 0.22	1021.48 ± 0.22	–	–	–	–	–

CCCCC(O)CO (configuration not stated) [1,2-hexanediol]
Settings	mass density, 283.15 K [kg/m3]	mass density, 293.15 K [kg/m3]	mass density, 298.15 K [kg/m3]	mass density, 303.15 K [kg/m3]	mass density, 313.15 K [kg/m3]	molar heat capacity at constant pressure, 283.15 K [J/K/mol]	molar heat capacity at constant pressure, 293.15 K [J/K/mol]	molar heat capacity at constant pressure, 298.15 K [J/K/mol]	molar heat capacity at constant pressure, 303.15 K [J/K/mol]	molar heat capacity at constant pressure, 313.15 K [J/K/mol]
[2]	–	–	–	–	–	277.11 ± 12	287.76 ± 12	293.1 ± 12	298.44 ± 13	309.15 ± 13
[3]	958.85 ± 0.79	951.73 ± 0.78	948.1 ± 0.78	944.44 ± 0.77	937.06 ± 0.76	–	–	–	–	–

CCCCC(O)CO (configuration not stated) [1,2-hexanediol] + O
excess molar heat capacity [J/K/mol], [1]
Settings	283.15 K	293.15 K	298.15 K	303.15 K	313.15 K
x1 = 0.04991	–	0.35 ± 0.43	–	1.74 ± 0.43	2.85 ± 0.44
x1 = 0.09952	–	–	0.87 ± 0.43	1.95 ± 0.43	3.92 ± 0.45
x1 = 0.1989	–	0.68 ± 0.43	1.97 ± 0.43	3.16 ± 0.44	5.28 ± 0.45
x1 = 0.2988	–	1.31 ± 0.43	2.52 ± 0.44	3.76 ± 0.44	5.95 ± 0.46
x1 = 0.4015	–	0.89 ± 0.43	2.19 ± 0.44	3.35 ± 0.44	5.35 ± 0.46
x1 = 0.4841	–	1.13 ± 0.43	2.22 ± 0.44	3.15 ± 0.44	4.97 ± 0.45
x1 = 0.5535	–	1.45 ± 0.43	2.33 ± 0.44	3.16 ± 0.44	–
x1 = 0.6972	–	0.9 ± 0.43	1.63 ± 0.43	2.27 ± 0.44	3.48 ± 0.44
x1 = 0.7927	–	0.92 ± 0.43	1.26 ± 0.43	1.52 ± 0.43	2.27 ± 0.44
x1 = 0.8822	–	0.82 ± 0.43	0.94 ± 0.43	0.89 ± 0.43	1.65 ± 0.43
x1 = 0.9437	0.04	0.68 ± 0.43	0.47 ± 0.43	0.22 ± 0.43	0.62 ± 0.43

OCCCCO [1,4-butanediol]
Settings	mass density, 283.15 K [kg/m3]	mass density, 293.15 K [kg/m3]	mass density, 298.15 K [kg/m3]	mass density, 303.15 K [kg/m3]	mass density, 313.15 K [kg/m3]	molar heat capacity at constant pressure, 283.15 K [J/K/mol]	molar heat capacity at constant pressure, 293.15 K [J/K/mol]	molar heat capacity at constant pressure, 298.15 K [J/K/mol]	molar heat capacity at constant pressure, 303.15 K [J/K/mol]	molar heat capacity at constant pressure, 313.15 K [J/K/mol]
[2]	–	–	–	–	–	195.51 ± 8.3	200.85 ± 8.5	203.73 ± 8.6	206.71 ± 8.8	212.96 ± 9
[3]	1022.21 ± 0.3	1016.11 ± 0.3	1013.06 ± 0.3	1009.99 ± 0.29	1003.85 ± 0.29	–	–	–	–	–

OCCO [1,2-ethanediol]
Settings	mass density, 283.15 K [kg/m3]	mass density, 293.15 K [kg/m3]	mass density, 303.15 K [kg/m3]	mass density, 313.15 K [kg/m3]	molar heat capacity at constant pressure, 283.15 K [J/K/mol]	molar heat capacity at constant pressure, 293.15 K [J/K/mol]	molar heat capacity at constant pressure, 298.15 K [J/K/mol]	molar heat capacity at constant pressure, 303.15 K [J/K/mol]	molar heat capacity at constant pressure, 313.15 K [J/K/mol]
[2]	–	–	–	–	145.38 ± 6.2	148.53 ± 6.3	150.22 ± 6.4	151.96 ± 6.4	155.49 ± 6.6
[3]	1120.39 ± 0.22	1113.34 ± 0.22	1106.23 ± 0.21	1099.07 ± 0.21	–	–	–	–	–
